Assay results from ChEMBL document CHEMBL3792365, “Dioxol and dihydrodioxin analogs of 2- and 3-phenylacetonitriles as potent anti-cancer agents with nanomolar activity against a variety of human cancer cells” (2016).

Assays:
Format in all cases: functional
[1] = test system: KM12; experiment: Growth inhibition of human KM12 cells at 10 uM after 48 hrs by sulforhodamine B assay; details: KM12, 48 h, values are per cent of control
[2] = Growth inhibition of human BT549 cells at 10 uM after 48 hrs by sulforhodamine B assay; details: BT-549, 48 h, values are per cent of control
[3] = test system: M14; experiment: Growth inhibition of human M14 cells at 10 uM after 48 hrs by sulforhodamine B assay; details: M14, 48 h, values are per cent of control
[4] = Growth inhibition of human LOXIMVI cells at 10 uM after 48 hrs by sulforhodamine B assay; details: LOX IMVI, values are per cent of control
[5] = test system: K562; experiment: Growth inhibition of human K562 cells at 10 uM after 48 hrs by sulforhodamine B assay; details: K562, 48 h, values are per cent of control
[6] = Growth inhibition of human Hs 578T cells at 10 uM after 48 hrs by sulforhodamine B assay; details: values are per cent of control
[7] = Growth inhibition of human SNB75 cells at 10 uM after 48 hrs by sulforhodamine B assay; details: SNB-75, 48 h, values are per cent of control
[8] = Growth inhibition of human IGROV1 cells at 10 uM after 48 hrs by sulforhodamine B assay; details: IGROV-1, 48 h, values are per cent of control
[9] = Growth inhibition of human OVCAR5 cells at 10 uM after 48 hrs by sulforhodamine B assay; details: OVCAR-5, 48 h, values are per cent of control
[10] = test system: T47D; experiment: Growth inhibition of human T47D cells at 10 uM after 48 hrs by sulforhodamine B assay; details: values are per cent of control
[11] = test system: U-251; experiment: Growth inhibition of human U251 cells at 10 uM after 48 hrs by sulforhodamine B assay; details: U-251, 48 h, values are per cent of control
[12] = test system: NCI-H226; experiment: Growth inhibition of human NCI-H226 cells at 10 uM after 48 hrs by sulforhodamine B assay; details: NCI-H226, 48 h, values are per cent of control
[13] = Growth inhibition of human COLO205 cells at 10 uM after 48 hrs by sulforhodamine B assay; details: COLO 205, 48 h, values are per cent of control
[14] = test system: SK-MEL-2; experiment: Growth inhibition of human SK-MEL-2 cells at 10 uM after 48 hrs by sulforhodamine B assay; details: SK-MEL-2, 48 h, values are per cent of control
[15] = Growth inhibition of human SW620 cells at 10 uM after 48 hrs by sulforhodamine B assay; details: SW-620, 48 h, values are per cent of control
[16] = Growth inhibition of human HCC2998 cells at 10 uM after 48 hrs by sulforhodamine B assay; details: HCC 2998, 48 h, values are per cent of control
[17] = Growth inhibition of human HCT116 cells at 10 uM after 48 hrs by sulforhodamine B assay; details: HCT-116, 48 h, values are per cent of control
[18] = Growth inhibition of human HOP62 cells at 10 uM after 48 hrs by sulforhodamine B assay; details: HOP-62, 48 h, values are per cent of control
[19] = test system: NCI-H460; experiment: Growth inhibition of human NCI-H460 cells at 10 uM after 48 hrs by sulforhodamine B assay; details: NCI-H460, 48 h, values are per cent of control
[20] = Growth inhibition of human SF539 cells at 10 uM after 48 hrs by sulforhodamine B assay; details: SF-539, 48 h, values are per cent of control
[21] = Growth inhibition of human UACC62 cells at 10 uM after 48 hrs by sulforhodamine B assay; details: UACC-62, 48 h, values are per cent of control
[22] = Growth inhibition of human DU145 cells at 10 uM after 48 hrs by sulforhodamine B assay; details: DU-145, 48 h, values are per cent of control
[23] = test system: SK-MEL-28; experiment: Growth inhibition of human SK-MEL-28 cells at 10 uM after 48 hrs by sulforhodamine B assay; details: SK-MEL-28, 48 h, values are per cent of control
[24] = test system: NCI-H23; experiment: Growth inhibition of human NCI-H23 cells at 10 uM after 48 hrs by sulforhodamine B assay; details: NCI-H23, 48 h, values are per cent of control
[25] = test system: A549; experiment: Growth inhibition of human A549/ATCC cells at 10 uM after 48 hrs by sulforhodamine B assay; details: A549, 48 h, values are per cent of control
[26] = test system: NCI-H322M; experiment: Growth inhibition of human NCI-H322M cells at 10 uM after 48 hrs by sulforhodamine B assay; details: values are per cent of control
[27] = Growth inhibition of human SNB19 cells at 10 uM after 48 hrs by sulforhodamine B assay; details: SNB-19, 48 h, values are per cent of control
[28] = Growth inhibition of human OVCAR4 cells at 10 uM after 48 hrs by sulforhodamine B assay; details: OVCAR-4, 48 h, values are per cent of control
[29] = Growth inhibition of human Caki1 cells at 10 uM after 48 hrs by sulforhodamine B assay; details: CAKI-1, 48 h, values are per cent of control
[30] = test system: A498; experiment: Growth inhibition of human A498 cells at 10 uM after 48 hrs by sulforhodamine B assay; details: A498, 48 h, values are per cent of control
[31] = Growth inhibition of human SF295 cells at 10 uM after 48 hrs by sulforhodamine B assay; details: SF-295, 48 h, values are per cent of control
[32] = test system: MDA-MB-468; experiment: Growth inhibition of human MDA-MB-468 cells at 10 uM after 48 hrs by sulforhodamine B assay; details: MDA-MB-468, 48 h, values are per cent of control
[33] = Growth inhibition of human SF268 cells at 10 uM after 48 hrs by sulforhodamine B assay; details: SF-268, 48 h, values are per cent of control
[34] = test system: HT-29; experiment: Growth inhibition of human HT-29 cells at 10 uM after 48 hrs by sulforhodamine B assay; details: HT-29, 48 h, values are per cent of control
[35] = test system: NCI-H522; experiment: Growth inhibition of human NCI-H522 cells at 10 uM after 48 hrs by sulforhodamine B assay; details: NCI-H522, 48 h, values are per cent of control
[36] = Growth inhibition of human TK10 cells at 10 uM after 48 hrs by sulforhodamine B assay; details: TK-10, 48 h, values are per cent of control
[37] = test system: MDA-MB-231; experiment: Growth inhibition of human MDA-MB-231 cells at 10 uM after 48 hrs by sulforhodamine B assay; details: MDA-MB-231, 48 h, values are per cent of control
[38] = Growth inhibition of human UO31 cells at 10 uM after 48 hrs by sulforhodamine B assay; details: UO-31, 48 h, values are per cent of control
[39] = test system: MDA-MB-435; experiment: Growth inhibition of human MDA-MB-435 cells at 10 uM after 48 hrs by sulforhodamine B assay; details: MDA-MB-435, 48 h, values are per cent of control
[40] = test system: SN12C; experiment: Growth inhibition of human SN12C cells at 10 uM after 48 hrs by sulforhodamine B assay; details: values are per cent of control

Compound: N#C/C(=C\c1cc(F)cc(F)c1)c1ccc2c(c1)OCO2
- growth, % of control at 10 µM [1]: 97.6%
- growth, % of control at 10 µM [2]: 94.5%
- growth, % of control at 10 µM [3]: 99%
- growth, % of control at 10 µM [4]: 105%
- growth, % of control at 10 µM [5]: 106%
- growth, % of control at 10 µM [6]: 122%
- growth, % of control at 10 µM [7]: 112%
- growth, % of control at 10 µM [8]: 121%
- growth, % of control at 10 µM [9]: 103%
- growth, % of control at 10 µM [10]: 102%
- growth, % of control at 10 µM [11]: 108%
- growth, % of control at 10 µM [12]: 102%
- growth, % of control at 10 µM [13]: 105%
- growth, % of control at 10 µM [14]: 119%
- growth, % of control at 10 µM [15]: 105%
- growth, % of control at 10 µM [16]: 94.6%
- growth, % of control at 10 µM [17]: 97.1%
- growth, % of control at 10 µM [18]: 91.9%
- growth, % of control at 10 µM [19]: 103%
- growth, % of control at 10 µM [20]: 97.8%
- growth, % of control at 10 µM [21]: 106%
- growth, % of control at 10 µM [22]: 109%
- growth, % of control at 10 µM [23]: 115%
- growth, % of control at 10 µM [24]: 103%
- growth, % of control at 10 µM [25]: 100%
- growth, % of control at 10 µM [26]: 121%
- growth, % of control at 10 µM [27]: 110%
- growth, % of control at 10 µM [28]: 107%
- growth, % of control at 10 µM [29]: 94.2%
- growth, % of control at 10 µM [30]: 111%
- growth, % of control at 10 µM [31]: 98.5%
- growth, % of control at 10 µM [32]: 102%
- growth, % of control at 10 µM [33]: 101%
- growth, % of control at 10 µM [34]: 109%
- growth, % of control at 10 µM [35]: 132%
- growth, % of control at 10 µM [36]: 119%
- growth, % of control at 10 µM [37]: 102%
- growth, % of control at 10 µM [38]: 104%
- growth, % of control at 10 µM [39]: 98.2%
- growth, % of control at 10 µM [40]: 106%
